The source of these data is paper PMC8955139, “Identifying HSV-1 Inhibitors from Natural Compounds via Virtual Screening Targeting Surface Glycoprotein D” (Pharmaceuticals, 2022).

Molecules are shown by their SMILES. Where two headings read alike, the source gives them in different places. Some results are limits rather than exact numbers.

For series [1], the system named is VERO cells. In words: Toxicity of AC#7 on VERO cells at high concentration (800 µM, 2 h exposure, 46 h). The settings on record: viability 46 h later, WST-1. On the technique in general: Tetrazolium dyes change colour on reduction, which living cells bring about.
Series [2] is described as follows: Cytotoxicity of ACs, WST-1, 24 h. Conditions: African green monkey, VERO cells.
For series [3], the system named is VERO cells. In words: Cytotoxicity of ACs, WST-1, 24 h. The settings on record: for Toxicity at the highest concentration tested compared with DMSO control: 100 µg/mL; for Highest Concentration with Cell Viability above 75%: 24 h, WST-1, tested 0.1-100 µg/mL; for Toxicity to the cells: 10 µg/mL.
The subject of series [4] is HSV-1 strain F. As to the kind of experiment: Plaque reduction dose-response assay in VERO cells. The format is cell-based. The settings on record: for EC50: Human alphaherpesvirus 1, plaque reduction.
Series [5] relates to HSV-1 strain F. As to the kind of experiment: Time of addition cytopathic effect (CPE) inhibition assay. It is filed as cell-based. Conditions: for Antiherpetic activity in the in vitro assays: CPE inhibition, all stages, #28 at 10 µg/mL, #29 at 1 µg/mL.
The test system of series [6] is HSV-1. In words: Pre-treatment of cells with AC#7 before HSV-1 infection (Figure S2). It is filed as cell-based.
A short description of a further series: in vitro. Conditions: African green monkey.
Series [7] deals with HSV-1. Conditions: cited from earlier work.
In a further series the test system is ACV-resistant HSV-1. Also on record: method as in PMID 9660995. Conditions: in vivo; cited from earlier work.
Another series relates to SARS-CoV 3CLpro. Conditions: cited from earlier work.

What is called viability is a read-out of living cells in per cent, often relative to untreated cells. As a reminder, the EC50 is the concentration that produces a half-maximal response. A word on the inhibition: it is the drop in the measured response relative to a control, in per cent. For `O=C(/C=C1\NCCc2cc3c(cc21)OCO3)c1cc2ccccc2o1` [AC#7, 1-(1-benzofuran-2-yl)-2-[(5Z)-2H,6H,7H,8H-[1,3]dioxolo [4,5-g]isoquinoline-5-ylidene]ethenone], the “Toxicity to VERO cells” value with VERO cells [1] was “Negligible toxicity”. Moreover, the viability at 24 h in series [2] is 124%. In addition, in the series on VERO cells [3], the “Toxicity at the highest concentration tested compared with DMSO control” value (from here on “Toxicity … compared with DMSO control”) is listed as “negligible toxicity”. Also, the “Highest Concentration with Cell Viability above 75%” value in the series on VERO cells [3] is on record as greater than 100 µg/mL. In addition, the “Reduction of virus-induced plaques compared to DMSO control” value in the series on HSV-1 strain F [4] (25 µM, virus preincubated 1 h, VERO) is “significantly reduced the number of virus-induced plaques”. Further, the “Dose dependence of antiviral response” value in the series with HSV-1 strain F [4] (6.25-400 µM, pre-incubated with the virus, vs DMSO control) is “dose-dependent antiviral response”. Also, the EC50 turned out to be 61 µg/mL in the series with HSV-1 strain F [4] (virus preincubated with AC 1 h, VERO) and 183 µM in the series with HSV-1 strain F [4] (virus preincubated with AC 1 h, VERO, asymmetric nonlinear regression R2 = 0.84). Besides, the “Antiviral activity at the viral inactivation stage” value with HSV-1 strain F [5] (10 µg/mL, virus preincubated with AC 1 h, MOI 5, VERO, vs DMSO control) is “significantly higher activity than the DMSO control”. Also, in the series on HSV-1 [6] (10 µg/mL, 1 h before infection, MOI 5, VERO), the “Antiviral activity when cells were preincubated with AC prior to HSV-1 infection” value is “No antiviral activity”. The Cell survival rate in the series on HSV-1 [6] (10 µg/mL, cells pre-treated 1 h, MOI=5, 48 h) was found to be 7.7%. In addition, the inhibition at 10 µg/mL with HSV-1 [6] (Human alphaherpesvirus 1, cells pre-treated 1 h, MOI=5, 48 h) worked out at 0%.
Regarding `O=C1NC(=O)c2c1c1c3ccccc3[nH]c1c1[nH]c3ccccc3c21` [AC#29, Arcyriaflavin A], the “Antiherpetic activity in the in vitro assays” value in the series with HSV-1 strain F [5] is “failed to show antiherpetic activity”. Moreover, in “in vitro”, the viability at 24 h was 86.2%.
As to `O=C(CC1NC(=O)c2ccccc21)Nc1ccc2c(c1)C(=O)N1CCC[C@H]1C(=O)N2` (stereo partly drawn) [AC#28, N-((S)-5,11-dioxo-2,3,5,10,11,11a-hexahydro-1H-benzo[e]pyrrolo[1,2-a][1,4]diazepin-7-yl)-2-(3-oxoisoindolin-1-yl)acetamide], in series [2], the viability at 24 h came out at 105%. In addition, in the series on VERO cells [3], the “Toxicity … compared with DMSO control” value was “negligible toxicity” and the “Highest Concentration with Cell Viability above 75%” value is greater than 100 µg/mL. In the series with HSV-1 strain F [5], the “Antiherpetic activity in the in vitro assays” value is listed as “failed to show antiherpetic activity”.
For the compound `O=c1c(-c2c3cn[nH]c3nc3c2oc2cc(O)ccc23)cc2cccc3c2n1CC3` [AC#27], the viability at 24 h in series [2] was determined as 106%. Also, in the series with VERO cells [3], the “Toxicity … compared with DMSO control” value is “negligible toxicity” and the “Highest Concentration with Cell Viability above 75%” value is on record as greater than 100 µg/mL. Also, the “Antiviral activity at the post-entry stage” value in the series on HSV-1 strain F [5] (10 µg/mL, AC added 1 h after infection, MOI 5, VERO) is given as “possess antiherpetic activity”.
As for `O=C(O[C@@H]1Cc2c(O)cc(O)cc2O[C@@H]1c1cc(O)c(O)c(O)c1)c1cc(O)c(O)c(O)c1` [epigallocatechin gallate], the EC50 in the series on HSV-1 [7] (antiviral activity) was 12.5 to 50 µM.
Take `CC[C@@H](NC(=O)[C@@H](CC(=O)[C@@H](CC(=O)[C@@H](NC(=O)[C@H](C(C)C)N(C)C(=O)[C@H](C)CC1CCCCC1)C(C)(C)C)CC(=O)C(C)(C)C)C1(C(=O)O)CCCC1)C(C)(C)C` [BILD 1633 SE]: the “Antiviral activity in vitro relative to ACV” value in the series on HSV-1 [7] (in vitro) is on record as “higher antiviral activity than ACV”. Besides, the “Therapeutic effect against ACV-resistant HSV-1 infections” value in the series on ACV-resistant HSV-1 is “potent therapeutic effect”.
Take `Nc1nc2c(ncn2COCCO)c(=O)[nH]1` [ACV, 9-((2-Hydroxyethoxy)methyl) guanine, reference compound]: the EC50 was 0.77 µM in the series on HSV-1 strain F [4] (added post-HSV infection, VERO, R2 > 0.99) and roughly 1 µM with HSV-1 [7] (in vitro).
Take `Cc1ccc(Cl)cc1N1CCN(C[C@H]2C(=O)O[C@@H]3C[C@@]4(C)CCC[C@H](C)[C@@]45O[C@H]5[C@@H]32)CC1` [AC#17, (1Ar,2S,5Ar,6Ar,9S,9Ar,9Bs)-9-( (4-(5-chloro-2-methylphenyl)piperazin-1-yl)methyl)-2,5a-dimethyloctahydro-2H-oxireno[2′,3′:4,4a]naphtho[2,3-b]furan-8(9Bh)-one]: the viability at 24 h in series [2] was 96.8%. Further, in the series with VERO cells [3], the “Toxicity to the cells” value is given as “exhibited toxicity” and the “Highest Concentration with Cell Viability above 75%” value came out at 1 µg/mL.
Consider `Cc1cc(O)c2c(c1)C(=O)c1cc(O)cc(O)c1C2=O` [emodin], for which the EC50 in the series with HSV-1 [7] (antiviral activity) was 21.5 to 195 µM.
Consider `CN1CCN(C(=O)CCn2c3c(c4ccccc42)CCn2c-3nc3ccccc3c2=O)CC1` [AC#10, 13-[3-(4-methylpiperazin-1-yl)-3-oxopropyl]-8,13-dihydroindolo[2′,3′:3,4] pyrido [2,1-b]quinazolin-5(7H)-one], for which, in [2], the viability at 24 h stood at 73.2%. In addition, in the series with VERO cells [3], the “Toxicity to the cells” value was “exhibited toxicity” and the “Highest Concentration with Cell Viability above 75%” value is 1 µg/mL.
Consider `CCOC(=O)/C=C/[C@H](C[C@@H]1CCNC1=O)NC(=O)[C@@H](CC(=O)[C@@H](NC(=O)c1cc(C)on1)C(C)C)Cc1ccc(F)cc1` [rupintrivir], for which the “Inhibition of SARS-CoV 3CLpro” value in the series on SARS-CoV 3CLpro was “weak to undetectable inhibition”.
For the compound `COc1cc(/C=C/C(=O)CC(=O)/C=C/c2ccc(O)c(OC)c2)ccc1O` [curcumin], the EC50 in the series with HSV-1 [7] (antiviral activity) is 89.6 µM.
Regarding `C[C@H]1CCC[C@]2(C)C[C@H]3OC(=O)[C@H](CN4CCN(c5ccccc5)CC4)[C@H]3[C@@H]3O[C@@]132` [AC#16, (1Ar,2S,5Ar,6Ar,9S,9Ar,9Bs)-2,5a-dimethyl-9-((4-phenylpiperazin-1-yl)methyl)octahydro-2H-oxireno[2′,3′:4,4a]naphtho[2,3-b]furan-8(9Bh)-one], the viability at 24 h in [2] is 102%. In addition, in the series with VERO cells [3], the “Toxicity to the cells” value is recorded as “exhibited toxicity” and the “Highest Concentration with Cell Viability above 75%” value amounted to 1 µg/mL.
